{"source": "paper PMC9787607", "about": "“A Novel Protocol for the Synthesis of 1,2,4-Oxadiazoles Active against Trypanosomatids and Drug-Resistant Leukemia Cell Lines” (Tropical Medicine and Infectious Disease, 2022)", "key": {"[1]": {"system": "K562", "test": "MTT cytotoxicity to CML cell line K562", "assay_type": "cell-based", "settings": "Homo sapiens, 72 h", "method": "(§1) The CML cell lines K562, Lucena-1 (K562/VCR), and FEPS (K562/DNR) were cultured in RPMI-1640 medium supplemented with 25 mM HEPES and 2 g L^−1 sodium bicarbonate adjusted to pH 7.4 with NaOH, 100 U penicillin and […] streptomycin. All media were supplemented with 10% FBS. Dr. Vivian M. Rumjanek (Instituto de Bioquímica Médica, UFRJ, Brazil) kindly donated Lucena-1 and FEPS cells. Briefly, K562 cells were exposed to increasing concentrations of the chemotherapeutic drugs vincristine sulfate (VCR) and daunorubicin hydrochloride (DNR) (both from Sigma-Aldrich), as described previously. Lucena-1 (K562/VCR) and FEPS (K562/DNR) cells were cultured in the presence of either 60 nM VCR or 500 nM DNR to maintain the MDR phenotypes. For subcultures, cells were harvested every three days followed by washing with cold FBS, and a final concentration of 2 × 10^4 cells mL^−1 was maintained at 37 °C in 5% CO2.\n(§2) Cell viability was determined by the 3-(4,5-dimethylthiazol-2-yl)-2,5-diphenyltetrazolium (MTT) colorimetric assay. CML cells (2 × 10^4 cells·mL^−1) were incubated for 72 h at 37 °C, followed by treatment with compounds at a range of concentrations (100–1 μM). Negative controls were prepared with 0.5% DMSO. An MTT salt solution was added to each well to a final concentration of 0.5 g·L^−1, and plates were incubated at 37 °C in 5% CO2 for 3 h. After centrifugation, 200 μL DMSO was added to dissolve the dark-blue formazan crystals formed by MTT reduction. Absorbance was measured on a microplate reader at 570 nm, which is directly proportional to formazan contents and indicative of living cells.\n(§3) The percent cell or parasite viability was calculated by the formula: % viability = [(A − P)/(N − P)] × 100, A = absorbance of specific well, P = positive control, N = negative control. Determination of half-maximal effective concentrations (EC50), calculated by logarithmic regression, and significance analysis (p < 0.05), using ANOVA and Dunnett’s test, by GraphPad Prism 7.0 software. The results are expressed as the mean and standard deviation (SD) of three independent experiments."}, "[2]": {"system": "Lucena-1 (K562/VCR)", "test": "cells", "assay_type": "cell-based, human", "settings": "for RR (relative resistance) Lucena-1: (EC50 MDR cells)/(EC50 parental cells), Lucena-1/K562; for EC50: Homo sapiens, Lucena 1, 72 h, read-out: EC50 Lucena-1", "how_it_was_run": "(§4)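 K562 and its MDR sublines Lucena-1 (maintained in 60 nM VCR) and FEPS (500 nM DNR) seeded at 2 × 10^4 cells/mL in RPMI-1640 with 10% FBS, treated with compounds at 1–100 μM (0.5% DMSO controls). MTT 0.5 g/L for 3 h, A570 read; EC50 by logarithmic regression, three independent experiments.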"}, "[3]": {"system": "FEPS (K562/DNR)", "test": "MTT cytotoxicity to MDR CML cell line FEPS", "assay_type": "cell-based, human", "settings": "for RR (relative resistance) FEPS: (EC50 MDR cells)/(EC50 parental cells), FEPS/K562; for EC50: Homo sapiens, K562, 72 h, MTT", "how_it_was_run": "as §4"}, "[4]": {"test": "Cytotoxicity to LLC-MK2 host cells (MTT)", "assay_type": "cell-based", "settings": "rhesus monkey, LLC-MK2 cells (kidney fibroblasts); for viability at 120 h, 50 µM: screening at 50 μM", "method": "(§5) LLC-MK2 kidney fibroblasts (ATCC) and RAW 264.7 macrophages (ATCC) were cultivated in culture flasks in complete DMEM with 5% FBS at 37 °C in 5% CO2. The LLC-MK2 cell monolayer was detached by treatment with trypsin-EDTA 0.05% for 5 min at 37 °C. The RAW cell monolayer was detached mechanically. In both cases, the cells were centrifuged at 480× g for 6 min and resuspended in complete DMEM with 5% FBS, and the cell density was determined by counting with trypan-blue dye exclusion on Neubauer chambers before use.\n(§6) LLC-MK2 cells were seeded in a 96-well microplate (1.0 × 10^4 cells per well) in complete DMEM with 5% FBS (120 µL per well). After incubation for 24 h at 37 °C in 5% CO2, the medium was renewed, and compounds were added at a range of concentrations in triplicate (50 μM or 100–1 μM). Untreated cells and cells treated with DMEM and 10% DMSO were used as negative and positive controls, respectively. Vehicle control containing DMEM and 0.3% DMSO was maintained for comparison. After incubation for 120 h at 37 °C in 5% CO2, the medium was renewed, and MTT salt solution in PBS was added (3.0 mM, 20 µL per well). After incubation for 2 h at 37 °C in 5% CO2, the supernatant was removed, and MTT formazan was dissolved in DMSO (150 µL per well). Absorbance was measured using a microplate reader at 570 nm.\nas §3"}, "[5]": {"system": "LLC-MK2 cells", "test": "Cytotoxicity to LLC-MK2 host cells (MTT)", "assay_type": "cell-based", "settings": "Macaca mulatta, LLC-MK2; 120 h, MTT", "method": "as §5, §6, §3"}, "[6]": {"system": "L. amazonensis promastigotes", "test": "Anti-L. amazonensis promastigote assessment (MTT)", "assay_type": "cell-based", "settings": "Leishmania amazonensis; 48 h, MTT; read-out: EC50 L. amazonensis promastigotes", "method": "Promastigotes of L. amazonensis (MHOM/BR/75/Josefa) were cultured in Schneider’s insect medium (SIM) with 10% FBS. Parasites were harvested at the stationary growth phase for assessment against promastigotes and 24 h after cultures reached the stationary growth phase for infection assays. […]. Complete SIM media and amphotericin B (AmB) at 10 µM were used as negative and positive controls, respectively. A vehicle control containing SIM with 10% SFB media and 0.3% DMSO was maintained for comparison. The final volume of the experiment was 100 µL. After incubation for 48 h at 27 °C, MTT salt solution in PBS was added (3.0 mM, 20 µL per well). After incubation for 2 h at 27 °C, the MTT formazan was dissolved by adding 120 µL of solubilizing buffer (50% isopropanol, 40% acetate buffer pH 5.4, 10% Triton-X). Absorbance was measured using a microplate reader at 570 nm.\nas §3"}, "[7]": {"system": "RAW 264.7 cells", "test": "Cytotoxicity to RAW 264.7 cells (MTT)", "assay_type": "cell-based, murine", "settings": "Mus musculus, RAW264.7; 48 h, MTT; read-out: EC50 RAW", "method": "as §5\nRAW 264.7 cells were seeded in a 96-well microplate (2.0 × 10^4 cells per well) in complete DMEM with 5% FBS (120 µL per well). After incubation for 24 h at 37 °C in 5% CO2, the medium was renewed, and compounds were added at a range of concentrations in triplicate (100–1 μM). Untreated cells and cells treated with DMEM and 10% DMSO were used as negative and positive controls, respectively. Vehicle control containing DMEM and 0.3% DMSO was maintained for comparison. After incubation for 48 h at 37 °C in 5% CO2, the medium was renewed, and an MTT solution in PBS was added (3.0 mM, 20 µL per well). After incubation for 2 h at 37 °C in 5% CO2, the supernatant was removed, and MTT formazan was dissolved in DMSO (150 µL per well). Absorbance was measured using a microplate reader at 570 nm.\nas §3"}, "[8]": {"system": "drug-sensitive and drug-resistant chronic myeloid leukemia cell lines (K562, Lucena-1, FEPS)", "test": "MTT cytotoxicity to CML cell lines, statements over all lines", "assay_type": "cell-based", "settings": "Homo sapiens, K562-Lucena 1, statement over K562, Lucena-1 and FEPS; read-out: EC50 against CML cell lines", "method": "as §1, §2"}}}
{"smiles": "COc1cc(/C=C/c2nc(-c3cc(OC)c(OC)c(OC)c3)no2)cc(OC)c1OC", "note": "[Compound 23, (E)-3-(3,4,5-trimethoxyphenyl)-5-[2-(3,4,5-trimethoxyphenyl)-vinyl]-1,2,4-oxadiazole]", "values": [{"measurement": "EC50", "setting": "[1]", "result": "13.2 ± 2.9", "unit": "µM"}, {"measurement": "RR (relative resistance) Lucena-1", "setting": "[2]", "result": 0.94}, {"measurement": "EC50", "setting": "[2]", "result": "12.4 ± 2.5", "unit": "µM"}, {"measurement": "RR (relative resistance) FEPS", "setting": "[3]", "result": 0.42}, {"measurement": "EC50", "setting": "[3]", "result": "5.5 ± 0.6", "unit": "µM"}, {"measurement": "viability at 120 h, 1 µM", "setting": "[4]; host cells at 1.0 μM, read-out: host cell viability", "result": "93 ± 4.4", "unit": "%"}, {"measurement": "viability at 120 h, 50 µM", "setting": "[4]", "result": "64.1 ± 4.4", "unit": "%"}, {"measurement": "EC50", "setting": "[5]", "result": "78 ± 4.7", "unit": "µM"}, {"measurement": "EC50", "setting": "[6]", "result": "12.2 ± 0.7", "unit": "µM"}, {"measurement": "EC50", "setting": "[7]", "result": "> 100", "unit": "µM"}, {"measurement": "melting point", "result": "118 to 120", "unit": "°C"}]}
{"smiles": "COc1cc(-c2noc(/C=C/c3ccc4c(c3)OCO4)n2)cc(OC)c1OC", "note": "[Compound 24, (E)-3-(3,4,5-trimethoxyphenyl)-5-[2-(3,4-methylenedioxy-phenyl)vinyl]-1,2,4-oxadiazole]", "values": [{"measurement": "EC50", "setting": "[1]", "result": "60.4 ± 4.1", "unit": "µM"}, {"measurement": "RR (relative resistance) Lucena-1", "setting": "[2]", "result": 1.37}, {"measurement": "EC50", "setting": "[2]", "result": "82.6 ± 10.8", "unit": "µM"}, {"measurement": "RR (relative resistance) FEPS", "setting": "[3]", "result": 0.15}, {"measurement": "EC50", "setting": "[3]", "result": "8.9 ± 0.3", "unit": "µM"}, {"measurement": "EC50", "setting": "[8]", "result": "< 20", "unit": "µM"}, {"measurement": "viability at 120 h, 50 µM", "setting": "[4]", "result": "55.9 ± 9.3", "unit": "%"}, {"measurement": "EC50", "setting": "[5]", "result": "53.4 ± 2.6", "unit": "µM"}, {"measurement": "EC50", "setting": "[6]", "result": "10 ± 2.7", "unit": "µM"}, {"measurement": "EC50", "setting": "[7]", "result": "58.8 ± 6.1", "unit": "µM"}, {"measurement": "melting point", "result": "177 to 180", "unit": "°C"}]}
{"smiles": "COc1cc(/C=C/c2nc(-c3ccccc3)no2)cc(OC)c1OC", "note": "[Compound 12, (E)-3-phenyl-5-[2-(3,4,5-trimethoxyphenyl)vinyl]-1,2,4-oxadiazole]", "values": [{"measurement": "EC50", "setting": "[1]", "result": "18 ± 0.9", "unit": "µM"}, {"measurement": "RR (relative resistance) Lucena-1", "setting": "[2]", "result": 2.42}, {"measurement": "EC50", "setting": "[2]", "result": "43.5 ± 1.8", "unit": "µM"}, {"measurement": "RR (relative resistance) FEPS", "setting": "[3]", "result": 1.42}, {"measurement": "EC50", "setting": "[3]", "result": "25.5 ± 4.9", "unit": "µM"}, {"measurement": "EC50", "setting": "[8]", "result": "< 20", "unit": "µM"}, {"measurement": "viability at 120 h, 50 µM", "setting": "[4]", "result": "88.2 ± 5.2", "unit": "%"}, {"measurement": "EC50", "setting": "[5]", "result": "> 100", "unit": "µM"}, {"measurement": "EC50", "setting": "[6]", "result": "26 ± 3", "unit": "µM"}, {"measurement": "EC50", "setting": "[7]", "result": "> 100", "unit": "µM"}]}
{"smiles": "C(=C\\c1nc(-c2ccccc2)no1)/c1cccnc1", "note": "[Compound 15, (E)-3-phenyl-5-[2-pyridyn-3-yl-vinyl]-1,2,4-oxadiazole]", "values": [{"measurement": "EC50", "setting": "[1]", "result": "27.6 ± 5.8", "unit": "µM"}, {"measurement": "RR (relative resistance) Lucena-1", "setting": "[2]", "result": 0.97}, {"measurement": "EC50", "setting": "[2]", "result": "26.7 ± 7.2", "unit": "µM"}, {"measurement": "RR (relative resistance) FEPS", "setting": "[3]", "result": 0.68}, {"measurement": "EC50", "setting": "[3]", "result": "18.7 ± 3.9", "unit": "µM"}, {"measurement": "EC50", "setting": "[8]", "result": "< 20", "unit": "µM"}, {"measurement": "EC50", "setting": "[5]", "result": "> 100", "unit": "µM"}, {"measurement": "EC50", "setting": "[6]", "result": "53.6 ± 2.2", "unit": "µM"}, {"measurement": "melting point", "result": "107 to 110", "unit": "°C"}]}
